The results in this text go back to patent publication US20220112187A1, “PYRAZOLOPYRIDINE AMINE COMPOUNDS FOR THE TREATMENT OF AUTOIMMUNE DISEASE” (Hoffmann-La Roche Inc., priority 2018, published 2022).

The structures appear in SMILES notation.

One may read the IC50 as the concentration needed to halve the response being measured. A higher IC50 goes with weaker potency in that assay.

For the test, the target named is T1, human TLR7 (Homo sapiens, UniProt Q9NYK1).
T1 sequence (Q9NYK1 27-1049): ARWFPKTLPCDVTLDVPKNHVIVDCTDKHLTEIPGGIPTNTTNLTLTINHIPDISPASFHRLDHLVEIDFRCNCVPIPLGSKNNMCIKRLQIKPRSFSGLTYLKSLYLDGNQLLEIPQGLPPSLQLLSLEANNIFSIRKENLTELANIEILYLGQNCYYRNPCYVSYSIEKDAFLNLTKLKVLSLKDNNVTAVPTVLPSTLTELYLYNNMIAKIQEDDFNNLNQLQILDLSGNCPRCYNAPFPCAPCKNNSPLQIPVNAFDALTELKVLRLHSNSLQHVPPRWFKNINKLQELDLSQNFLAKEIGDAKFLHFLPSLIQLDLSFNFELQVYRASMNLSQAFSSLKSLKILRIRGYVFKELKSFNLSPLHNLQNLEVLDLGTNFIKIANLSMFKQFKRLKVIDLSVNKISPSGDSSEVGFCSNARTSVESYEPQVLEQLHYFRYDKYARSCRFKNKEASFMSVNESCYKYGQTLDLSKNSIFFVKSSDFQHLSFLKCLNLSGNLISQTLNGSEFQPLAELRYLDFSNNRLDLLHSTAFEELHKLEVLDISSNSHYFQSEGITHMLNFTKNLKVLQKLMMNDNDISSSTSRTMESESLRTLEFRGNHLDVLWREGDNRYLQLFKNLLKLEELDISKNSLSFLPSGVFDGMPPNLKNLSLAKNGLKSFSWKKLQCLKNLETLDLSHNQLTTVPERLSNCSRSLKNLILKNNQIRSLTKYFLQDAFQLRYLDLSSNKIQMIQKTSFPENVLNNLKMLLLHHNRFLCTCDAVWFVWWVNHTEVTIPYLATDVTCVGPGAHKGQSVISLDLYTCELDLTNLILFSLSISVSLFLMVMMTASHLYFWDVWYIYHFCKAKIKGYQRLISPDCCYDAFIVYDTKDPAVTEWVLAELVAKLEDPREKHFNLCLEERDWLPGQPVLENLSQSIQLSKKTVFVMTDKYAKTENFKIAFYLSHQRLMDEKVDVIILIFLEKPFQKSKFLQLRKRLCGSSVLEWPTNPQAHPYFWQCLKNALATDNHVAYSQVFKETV
Put plainly: HEK293-Blue-hTLR-7 cells assay (SEAP reporter, R848 stimulation). The settings on record: HEK293-Blue-hTLR7 cells, R848 ligand, 20 hrs incubation. Type of test: cell-based. The text has this:
A stable HEK293-Blue-hTLR-7 cell line was purchased from InvivoGen (Cat. #: hkb-htlr7, San Diego, Calif., USA). These cells were originally designed for studying the stimulation of human TLR7 by monitoring the activation of NF-κB. A SEAP (secreted embryonic alkaline phosphatase) reporter gene was placed under the control of the IFN-β minimal promoter fused to five NF-κB and AP-1-binding sites. The SEAP was induced by activating NF-κB and AP-1 via stimulating HEK-Blue hTLR7 cells with TLR7 ligands. Therefore the reporter expression was declined by TLR7 antagonist under the stimulation of a ligand, such as R848 (Resiquimod), for incubation of 20 hrs. The cell culture supernatant SEAP reporter activity was determined using QUANTI-Blue™ kit (Cat. #: rep-qb1, Invivogen, San Diego, Ca, USA) at a wavelength of 640 nm, a detection medium that turns purple or blue in the presence of alkaline phosphatase.
HEK293-Blue-hTLR7 cells were incubated at a density of 250,000˜450,000 cells/mL in a volume of 170 μL in a 96-well plate in Dulbecco's Modified Eagle's medium (DMEM) containing 4.5 g/L glucose, 50 U/mL penicillin, […], […], 2 mM L-glutamine, 10% (v/v) heat-inactivated fetal bovine serum with addition of 20 μL test compound in a serial dilution in the presence of final DMSO at 1% and 10 μL of 20 uM R848 in above DMEM, perform incubation under 37° C. in a CO2 incubator for 20 hrs. Then 20 μL of the supernatant from each well was incubated with 180 μL Quanti-blue substrate solution at 37° C. for 2 hrs and the absorbance was read at 620˜655 nm using a spectrophotometer. The signalling pathway that TLR7 activation leads to downstream NF-κB activation has been widely accepted, and therefore similar reporter assay was modified for evaluating TLR7 antagonist.
`C[C@@H]1CN(c2ccc(C#N)n3nccc23)C[C@H](CNC2CCN(C)CC2)O1` [Example 7, 4-[(2R,6S)-2-methyl-6-[[(1-methyl-4-piperidyl)amino]methyl]morpholin-4-yl]pyrazolo[1,5-a]pyridine-7-carbonitrile] yielded an IC50 of 260 nM.

`C[C@@H]1CN(c2ccc(C#N)n3nccc23)C[C@H](CN2C3CCC2CNC3)O1` [Example 43, 4-[(2S,6R)-2-(3,8-diazabicyclo[3.2.1]octan-8-ylmethyl)-6-methyl-morpholin-4-yl]pyrazolo[1,5-a]pyridine-7-carbonitrile] had an IC50 of 59 nM.

Turning to `CC1CNCCN1C[C@H]1CN(c2ccc(C#N)n3nccc23)C[C@@H](C)O1` (single isomer, unassigned) [Example 50A], inhibition was half-maximal at 230 nM (IC50).

In turn, `C[C@@H]1CN(c2ccc(C#N)n3nccc23)C[C@H](CN2CC3(CCCNC3)C2)O1` [Example 10, 4-[(2S,6R)-2-(2,8-diazaspiro[3.5]nonan-2-ylmethyl)-6-methyl-morpholin-4-yl]pyrazolo[1,5-a]pyridine-7-carbonitrile] registered an IC50 of 83 nM.

As for `C[C@@H]1CN(c2ccc(C#N)n3nccc23)C[C@H](CN2CCC3(CCNCC3)CC2)O1` [Example 3, 4-[(2S,6R)-2-(3,9-diazaspiro[5.5]undecan-3-ylmethyl)-6-methyl-morpholin-4-yl]pyrazolo[1,5-a]pyridine-7-carbonitrile], half-maximal inhibition (IC50) was put at 240 nM.

`C[C@@H]1CN(c2ccc(C#N)n3nccc23)C[C@H](CN2CC3CNCC3C2)O1` (stereo partly drawn) [Example 22, 4-[(2S,6R)-2-(2,3,3a,4,6,6a-hexahydro-1H-pyrrolo[3,4-c]pyrrol-5-ylmethyl)-6-methyl-morpholin-4-yl]pyrazolo[1,5-a]pyridine-7-carbonitrile] registered an IC50 of 100 nM.

`C[C@@H]1CN(c2ccc(C#N)n3nccc23)C[C@H](CN2CCC(CN)CC2)O1` [Example 12, 4-[(2S,6R)-2-[[4-(aminomethyl)-1-piperidyl]methyl]-6-methyl-morpholin-4-yl]pyrazolo[1,5-a]pyridine-7-carbonitrile]: the IC50 amounted to 240 nM.

For `C[C@@H]1CN(c2ccc(C#N)n3nccc23)C[C@H](CN2CCCC3(CCCNC3)C2)O1` (stereo partly drawn) [Example 23, 4-[(2S,6R)-2-(2,8-diazaspiro[5.5]undecan-2-ylmethyl)-6-methyl-morpholin-4-yl]pyrazolo[1,5-a]pyridine-7-carbonitrile], the 50% inhibitory concentration (IC50) came out at 180 nM.

In turn, `C[C@@H]1CN(c2ccc(C#N)n3nccc23)C[C@H](CN2CC3CCC2CN3)O1` (stereo partly drawn) [Example 30, 4-[(2S,6R)-2-(2,5-diazabicyclo[2.2.2]octan-2-ylmethyl)-6-methyl-morpholin-4-yl]pyrazolo[1,5-a]pyridine-7-carbonitrile] registered an IC50 of 46 nM.

In turn, `C[C@@H]1CN(c2ccc(C#N)n3nccc23)C[C@H](CN2CC[C@@H]3CNCC32)O1` (stereo partly drawn) [Example 62, 4-[(2R,6S)-2-methyl-6-[[cis-(3aR,6aR)-3,3a,4,5,6,6a-hexahydro-2H-pyrrolo[3,4-b]pyrrol-1-yl]methyl]morpholin-4-yl]pyrazolo[1,5-a]pyridine-7-carbonitrile] showed an IC50 of 710 nM.

Regarding `C[C@@H]1CN(c2ccc(C#N)n3nccc23)C[C@H](CN2CCN[C@H](c3ccccc3)C2)O1` [Example 38, 4-[(2R,6S)-2-methyl-6-[[(3R)-3-phenylpiperazin-1-yl]methyl]morpholin-4-yl]pyrazolo[1,5-a]pyridine-7-carbonitrile], the 50% inhibitory concentration (IC50) was found to be 120 nM.

With `C[C@@H]1CN(c2ccc(C#N)n3nccc23)C[C@H](CN2CCC3(CCCNC3)C2)O1` (stereo partly drawn) [Example 25, 4-[(2S,6R)-2-(2,9-diazaspiro[4.5]decan-2-ylmethyl)-6-methyl-morpholin-4-yl]pyrazolo[1,5-a]pyridine-7-carbonitrile], the half-inhibitory concentration (IC50) came to 110 nM.

On to `C[C@@H]1CN(c2ccc(C#N)n3nccc23)C[C@H](CN2CCC(N3CCNCC3)CC2)O1` [Example 39, 4-[(2R,6S)-2-methyl-6-[(4-piperazin-1-yl-1-piperidyl)methyl]morpholin-4-yl]pyrazolo[1,5-a]pyridine-7-carbonitrile], for which the IC50 turned out to be 200 nM. This IC50 is about 1.8-fold higher than that of the molecule before.

`C[C@@H]1CN(c2ccc(C#N)n3nccc23)C[C@H](CN2CCC(C)(N)CC2)O1` [Example 29, 4-[(2S,6R)-2-[(4-amino-4-methyl-1-piperidyl)methyl]-6-methyl-morpholin-4-yl]pyrazolo[1,5-a]pyridine-7-carbonitrile]: the half-maximal inhibitory concentration (IC50) was 76 nM.

On to `C[C@@H]1CN(c2ccc(C#N)n3nccc23)C[C@H](CN2CC3CNCCC32)O1` (stereo partly drawn) [Example 52, 4-[(2S,6R)-2-(3,7-diazabicyclo[4.2.0]octan-7-ylmethyl)-6-methyl-morpholin-4-yl]pyrazolo[1,5-a]pyridine-7-carbonitrile], for which the IC50 is 92 nM.

`C[C@@H]1CN(c2ccc(C#N)n3nccc23)C[C@H](CN2C3COCC2CC(N)C3)O1` (stereo partly drawn) [Example 58, 4-[(2S,6R)-2-[(7-amino-3-oxa-9-azabicyclo[3.3.1]nonan-9-yl)methyl]-6-methyl-morpholin-4-yl]pyrazolo[1,5-a]pyridine-7-carbonitrile] yielded a half-maximal inhibitory concentration (IC50) of 90 nM.

`C[C@@H]1CN(c2ccc(C#N)n3nccc23)C[C@H](CN2CCC3(CCCNC3)CC2)O1` [Example 27, 4-[(2S,6R)-2-(2,9-diazaspiro[5.5]undecan-9-ylmethyl)-6-methyl-morpholin-4-yl]pyrazolo[1,5-a]pyridine-7-carbonitrile]: the IC50 is 130 nM.

In the case of `C[C@@H]1CN(c2ccc(C#N)n3nccc23)C[C@H](CN2CCC3(CCCN3)CC2)O1` [Example 53, 4-[(2S,6R)-2-(1,8-diazaspiro[4.5]decan-8-ylmethyl)-6-methyl-morpholin-4-yl]pyrazolo[1,5-a]pyridine-7-carbonitrile], the IC50 is 230 nM.

`C[C@@H]1CN(c2ccc(C#N)n3nccc23)C[C@H](CN2CCC3(CCNCC3)C2)O1` [Example 18, 4-[(2S,6R)-2-(2,8-diazaspiro[4.5]decan-2-ylmethyl)-6-methyl-morpholin-4-yl]pyrazolo[1,5-a]pyridine-7-carbonitrile]: inhibition was half-maximal at 200 nM (IC50). The IC50 values of the last two molecules are within 1.5-fold of each other.

For the molecule `C[C@@H]1CN(c2ccc(C#N)n3nccc23)C[C@H](CN2CCC3(CCNC3)CC2)O1` [Example 19, 4-[(2S,6R)-2-(2,8-diazaspiro[4.5]decan-8-ylmethyl)-6-methyl-morpholin-4-yl]pyrazolo[1,5-a]pyridine-7-carbonitrile], the IC50 stood at 130 nM.

As to `C[C@@H]1CN(c2ccc(C#N)n3ncc(F)c23)C[C@H](CN2CCC3(CCCNC3)C2)O1` (stereo partly drawn) [Example 69, 3-fluoro-4-[(2S,6R)-2-(2,9-diazaspiro[4.5]decan-2-ylmethyl)-6-methyl-morpholin-4-yl]pyrazolo[1,5-a]pyridine-7-carbonitrile], half-maximal inhibition (IC50) was put at 130 nM.

For `C[C@@H]1CN(c2ccc(C#N)n3nccc23)C[C@H](CN2CCC(CCN)CC2)O1` [Example 13, 4-[(2S,6R)-2-[[4-(2-aminoethyl)-1-piperidyl]methyl]-6-methyl-morpholin-4-yl]pyrazolo[1,5-a]pyridine-7-carbonitrile], the IC50 was determined as 400 nM.

Consider `C[C@@H]1CN(c2ccc(C#N)n3nccc23)C[C@H](CN2CC(N)C(F)(F)C2)O1` (stereo partly drawn) [Example 35, 4-[(2S,6R)-2-[(4-amino-3,3-difluoro-pyrrolidin-1-yl)methyl]-6-methyl-morpholin-4-yl]pyrazolo[1,5-a]pyridine-7-carbonitrile], for which the IC50 was determined as 830 nM. Against the preceding molecule, the IC50 is about 2.1-fold higher.
